# Measurements: PubChem BioAssay AID743417 (Broad Institute, 2014)
# Inconclusive results are not listed.
# System: Clone20 osteoblast Shn3 3'UTR firefly luciferase, 24 h
# Assay: Shn3 3'UTR reporter inhibitors, dose response, cell-based, Clone20 osteoblasts, luminescence, dry powder, set 2 (AID 743417)
row,Structure (SMILES),AC50 [nM]
1,COc1ccc([C@H]2CC(=O)C=C(c3ccc(F)cc3OCc3ccccc3)C2)cc1OC,7360
2,COC(=O)C1=C(c2ccc3ccccc3c2)C[C@@H]2CC[C@H]1N2C(=O)NCC1CC1,6860
3,C=C1C(=O)[C@]23C[C@H]1CCC2[C@@]1(C)C(C[C@@H]3O)[C@](C)(C(=O)OC)CC[C@@H]1O (some centres not stated),2580
4,CCOC(=O)C1(Cc2ccc(Cl)cc2)CCN(C(C)Cc2ccc(O)c(OC)c2)CC1 (configuration not stated),1330
5,COC(=O)C1=C(c2ccc(F)cc2OCc2ccccc2)C[C@@H]2CC[C@H]1N2C(=O)NC1Cc2ccccc2C1,8000
6,Cc1ccc2nc(NNC(=O)c3ccc(S(=O)(=O)N4CCc5ccccc5C4)cc3)sc2c1,1620
7,O=C(OCn1ncc(Cl)c(Cl)c1=O)c1cccc(C(F)(F)F)c1,3740
8,CCN(CC)S(=O)(=O)c1cc(NC(=O)CNc2cccc(S(=O)(=O)N3CCOCC3)c2)ccc1C,2970
9,O=C(Nc1ccc(N2CCOCC2)cc1)c1ccc(Cl)c(S(=O)(=O)N2CCCCC2)c1,810
10,CC(NCc1ccc(OCc2ccc(Cl)cc2)cc1)C(O)c1ccccc1 (configuration not stated),10900
11,CCn1c(C)nc2cc(-c3nnc(-c4c(-c5ccccc5)noc4C)o3)ccc21,5820
12,Cc1cc(C)c(-c2csc(NC(=O)CCCc3nc4ccccc4c(=O)[nH]3)n2)c(C)c1,2970
13,CCOC(=O)C1CCCN(S(=O)(=O)c2ccc(S(=O)(=O)N(CC)CC)cc2)C1 (configuration not stated),512
14,CCCOc1ccccc1C1CC(=O)Nc2cc3c(cc21)OCCO3 (configuration not stated),3660
15,CCCc1ccc(C(=O)NNc2cc(Cl)ccc2Cl)cc1,2590
16,C=C1C(=O)C23C(O)C1CCC2C12CCCC(C)(COC(C)=O)C1C(O)C3(O)OC2 (configuration not stated),771
17,CSc1nnc(NC(=O)c2nc(S(=O)(=O)Cc3ccccc3)ncc2Cl)s1,1350
18,Cc1ccccc1CN1CC2=C(CCN(Cc3ccccc3)C2=O)N2CCN=C12,2410
19,CCOC(=O)c1ccc(NC(=O)Cn2ncc(Cl)c(Cl)c2=O)cc1,2320
20,Cc1cc(C)c2nc(NNC(=O)c3ccc(S(=O)(=O)N4CC(C)CC(C)C4)cc3)sc2c1 (configuration not stated),2280
21,COc1cc2ccnc(Cc3cccc(OC)c3OC)c2cc1OC,4640
22,Cc1cccc(NS(=O)(=O)c2ccc(C3CCCCC3)cc2)c1,5130
23,CC(=O)OCCCNc1cc(Sc2nc3ccccc3s2)c2nonc2c1[N+](=O)[O-],4700
24,CCC(CC)CC1CN2CCc3cc(OC)c(OC)cc3C2CC1(O)CC (configuration not stated),2000
25,O=S(=O)(c1ccc(Cl)cc1)N1CCN(c2ncnc3sccc23)CC1,3040
26,CCC(=O)NC(C)c1cc(Cl)c2cccnc2c1O (configuration not stated),5190

row,Structure (SMILES),AC50 [nM]
1,CC(C)Cn1c(N)c(C(=O)COC(=O)C2Cc3ccccc3CN2S(C)(=O)=O)c(=O)n(C)c1=O (configuration not stated),720
2,COc1ccc(CCNc2ncnc3sc(C)cc23)cc1OC,< 260
3,CCCNC(=O)c1nnsc1S(=O)(=O)c1ccc(Cl)cc1,3630
4,O=C(Nc1ccc2oc(-c3ccncc3)nc2c1)c1ccc([N+](=O)[O-])o1,18600
5,Cc1ccc(N2C(=O)c3cccc4c([N+](=O)[O-])ccc(c34)C2=O)c2cccnc12,5680
6,COc1cccc(-c2nc(NC3CCCC3)c3ccccc3n2)c1O,25000
7,C=CCOc1nc2c(c(=O)n(C)c(=O)n2C)n1Cc1ccc(Cl)cc1Cl,2150
8,O=C(O)c1cccc(COc2ccc(CO)cc2Cl)c1,1040
9,CC1CN(C(=O)CCc2cc(C(C)(C)C)c(O)c(C(C)(C)C)c2)CC(C)O1 (configuration not stated),2560
10,Cc1onc(-c2ccccc2Cl)c1C(=O)N(C)C1CCCCC1,2740
11,O=C1CC(Sc2nnc(-c3ccccc3O)o2)C(=O)N1c1ccccc1 (configuration not stated),12900
12,c1ccc(CN=C(NCc2ccccc2)NCc2ccccc2)cc1,1790
13,Cc1ccccc1C(=O)N1CCN(c2ccc(NC(=O)CSc3ccc(Cl)cc3)cc2)CC1,4230
14,O=[N+]([O-])c1c(NCCO)cc(Sc2nc3ccccc3s2)c2nonc12,1640
15,C=CCNc1nc(-c2ccccn2)nnc1-c1ccccc1,3170
16,OCc1ccc(O)c2ncccc12,1660
17,CS(=O)(=O)c1nc(-c2ccc(F)cc2)cc(C(F)(F)F)n1,2720
18,CC(C)(C)C(=O)Nc1cc2nn(-c3ccccc3)nc2cc1Cl,5160
19,CC(C)C[C@@H](CO)N(Cc1ccccc1)S(=O)(=O)N(Cc1ccccc1)[C@H](CO)CC(C)C,10100
20,COc1ccc(CCNc2cc(N3CCN(C(=O)c4ccccc4OC)CC3)ccc2[N+](=O)[O-])cc1OC,2630
21,CCC(=O)N1c2ccc(S(=O)(=O)N3CCN(c4ccc([N+](=O)[O-])cc4)CC3)cc2CC1C (configuration not stated),1930
22,CC(=O)N1CCN(c2ccc(NC(=O)c3ccc([N+](=O)[O-])o3)cc2Cl)CC1,1080
23,Cc1ccc(F)cc1CNC(=O)c1cc(COc2ccc3ncccc3c2)on1,4880
24,O=C1CCCN2N=C(SCC(=O)Nc3cccc(C(F)(F)F)c3)SC2=N1,4370
25,CCOc1ccc(S(=O)(=O)N(C)c2ccc(OCC(=O)Nc3nc4ccccc4s3)cc2)cc1,2820
26,CCOC(=O)N1CCN(C(=O)c2ccc(Cn3c(=S)[nH]c4ccc(Br)cc4c3=O)cc2)CC1,1250
